Results published in patent US20090208747A1, “Novel Crystalline Methods and Novel Crystalline and Amorphous forms of Halogenated Sugars” (V.B. MEDICARE PVT. LTD, priority 2006, published 2009).
Like-named read-outs stand apart in the source and are kept apart here.

What was measured:
Particle size analysis = settings: for particle size distribution at 90%: 90% of particles below this size
[1] = Accelerated stability test, sealed containers incubated at 50° C.; format: physicochemical; settings: sealed container; for Assay (%) / PH: listed as Crystalline TGS crystallized from butanol:methanol mixture
Procedure: For extrapolating potential storage stability beyond one year, an accelerated storage stability test was conducted. In this test, crystalline TGS of small and large mean particle size was incubated at 50° C. in sealed containers. Percent assay and pH were tested after each 24 hours for five successive days. […] A three days' stability in accelerated stability test is extrapolated by Catani et al (2005) to 8 years of storage stability at ambient temperature.
All the three samples were taken in sealed containers and were incubated at 50° C. […]

[2] = Stability testing as per ICH Guideline Q1A(R2), storage stability; format: physicochemical
From the text: Stability testing was done as per ICH Harmonised Tripaertite Guideline Stability Testing of New drug substances and Products Q1A(R2) issued by International Conference on Hamonization of technical requirements for registration of pharmaceuticals for human use and recommended for adoption at Step 4 of the ICH Process on 6 Feb.
Details are given on table nos 1 to 4 given in the following: […]

[3] = Analysis against JECFA specifications: solubility; format: physicochemical; settings: in ethyl acetate
[4] = 25° C. ± 2° C. 60% RH ± 5% RH, 1st month
[5] = 25° C. ± 2° C. 60% RH ± 5% RH, 2nd month
[6] = 25° C. ± 2° C. 60% RH ± 5% RH, 3rd month
[7] = 25° C. ± 2° C. 60% RH ± 5% RH, 4th month
[8] = 25° C. ± 2° C. 60% RH ± 5% RH, 5th month
[9] = 25° C. ± 2° C. 60% RH ± 5% RH, 6th month
[10] = 25° C. ± 2° C. 60% RH ± 5% RH, 12th month
[11] = 25° C. ± 2° C. 60% RH ± 5% RH, 24th month
[12] = 25° C. ± 2° C. 60% RH ± 5% RH, INITIAL
[13] = 30° C. ± 2° C. 65% RH ± 5% RH, 1st month
[14] = 30° C. ± 2° C. 65% RH ± 5% RH, 2nd month
[15] = 30° C. ± 2° C. 65% RH ± 5% RH, 3rd month
[16] = 30° C. ± 2° C. 65% RH ± 5% RH, 4th month
[17] = 30° C. ± 2° C. 65% RH ± 5% RH, 5th month
[18] = 30° C. ± 2° C. 65% RH ± 5% RH, 6th month
[19] = 30° C. ± 2° C. 65% RH ± 5% RH, 12th month
[20] = 30° C. ± 2° C. 65% RH ± 5% RH, 24th month
[21] = 30° C. ± 2° C. 65% RH ± 5% RH, INITIAL
[22] = 40° C. ± 2° C. 75% RH ± 5% RH, 1st month
[23] = 40° C. ± 2° C. 75% RH ± 5% RH, 2nd month
[24] = 40° C. ± 2° C. 75% RH ± 5% RH, 3rd month
[25] = 40° C. ± 2° C. 75% RH ± 5% RH, 4th month
[26] = 40° C. ± 2° C. 75% RH ± 5% RH, 5th month
[27] = 40° C. ± 2° C. 75% RH ± 5% RH, 6th month
[28] = 40° C. ± 2° C. 75% RH ± 5% RH, 12th month
[29] = 40° C. ± 2° C. 75% RH ± 5% RH, 24th month
[30] = 40° C. ± 2° C. 75% RH ± 5% RH, INITIAL

What does the source list for `OC[C@H]1O[C@H](O[C@]2(CCl)O[C@H](CCl)[C@@H](O)[C@@H]2O)[C@H](O)[C@@H](O)[C@H]1Cl` [Crystalline TGS small particle size, 1′-6′-Dichloro-1′-6′-DIDEOXY-β-Fructofuranasyl-4-chloro-4-deoxy-galactopyranoside]?
mean particle size (Particle size analysis): about 4.2 micron; particle size distribution at 90% (Particle size analysis; listed as Example 2): below 10 microns; particle size distribution at 90% (Particle size analysis; listed as crystallized product): < 10 microns; mean particle size (Particle size analysis; listed as Example 2): 4.2 micron; Assay (%) ([1]; First day): 99.2%; PH ([1]; First day): 7.90; Assay (%) ([1]; Fourth day): 99.12%; PH ([1]; Fourth day): 7.62; percent assay as well as pH ([1]; over the test period): stable; Appearance [2, 4]: Normal; Assay [2, 4]: 99.02%; Specific Rotation [2, 4]: +85.99°; Water content [2, 4]: 0.73%; Appearance [2, 5]: Normal; Assay [2, 5]: 99.04%; Specific Rotation [2, 5]: +84.63°; Water content [2, 5]: 0.63%; Appearance [2, 6]: Normal; Assay [2, 6]: 99.05%; Specific Rotation [2, 6]: +85.31°; Water content [2, 6]: 0.22%; Appearance [2, 7]: Normal; Specific Rotation [2, 7]: +84.20°; Water content [2, 7]: 0.41%; Appearance [2, 8]: Normal; Assay [2, 8]: 98.42%; Specific Rotation [2, 8]: +87.22°; Water content [2, 8]: 0.17%; Appearance [2, 9]: Normal; Assay [2, 9]: 99.07%; Specific Rotation [2, 9]: +86.78°; Water content [2, 9]: 0.23%; Appearance [2, 10]: Normal; Assay [2, 10]: 99.02%; Specific Rotation [2, 10]: +85.93°; Water content [2, 10]: 0.33%; Appearance [2, 11]: Normal; Assay [2, 11]: 98.78%; Specific Rotation [2, 11]: +84.63°; Water content [2, 11]: 0.53%; Appearance [2, 12]: Normal; Specific Rotation [2, 12]: +86.07°; Water content [2, 12]: 0.52%; Appearance [2, 13]: Normal; Specific Rotation [2, 13]: +86.01°; Water content [2, 13]: 0.69%; Appearance [2, 14]: Normal; Specific Rotation [2, 14]: +85.11°; Water content [2, 14]: 0.19%; Appearance [2, 15]: Normal; Assay [2, 15]: 100.62%; Specific Rotation [2, 15]: +86.29°; Water content [2, 15]: 0.28%; Appearance [2, 16]: Normal; Assay [2, 16]: 99.95%; Specific Rotation [2, 16]: +86.67°; Water content [2, 16]: 0.24%; Appearance [2, 17]: Normal; Assay [2, 17]: 99.88%; Specific Rotation [2, 17]: +87.58°; Water content [2, 17]: 0.18%; Appearance [2, 18]: Normal; Assay [2, 18]: 99.43%; Specific Rotation [2, 18]: +84.35°; Water content [2, 18]: 0.42%; Appearance [2, 19]: Normal; Specific Rotation [2, 19]: +85.62°; Water content [2, 19]: 0.66%; Appearance [2, 20]: Normal; Assay [2, 20]: 98.82%; Specific Rotation [2, 20]: +86.73°; Water content [2, 20]: 0.70%; Appearance [2, 21]: Normal; Specific Rotation [2, 21]: +86.07°; Water content [2, 21]: 0.52%; Appearance [2, 22]: Normal; Assay [2, 22]: 99.06%; Specific Rotation [2, 22]: +86.01°; Water content [2, 22]: 0.73%; Appearance [2, 23]: Normal; Assay [2, 23]: 99.04%; Specific Rotation [2, 23]: +86°; Water content [2, 23]: 1.10%; Appearance [2, 24]: Normal; Specific Rotation [2, 24]: +85.16°; Water content [2, 24]: 0.27%; Appearance [2, 25]: Normal; Specific Rotation [2, 25]: +85.81°; Water content [2, 25]: 0.22%; Appearance [2, 26]: Normal; Assay [2, 26]: 98.96%; Specific Rotation [2, 26]: +85.74°; Water content [2, 26]: 0.20%; Appearance [2, 27]: Normal; Assay [2, 27]: 98.82%; Specific Rotation [2, 27]: +82.67°; Water content [2, 27]: 0.49%; Appearance [2, 28]: Normal; Assay [2, 28]: 98.75%; Specific Rotation [2, 28]: +86.01°; Water content [2, 28]: 0.73%; Appearance [2, 29]: Normal; Assay [2, 29]: 98.52%; Specific Rotation [2, 29]: +86°; Water content [2, 29]: 1.10%; Appearance [2, 30]: Normal; Specific Rotation [2, 30]: +86.07°; Water content [2, 30]: 0.52%; stability in storage ([2]; storage, listed as crystalline TGS of this invention): stable in storage for one year; Solubility [3]: water. Slightly
